Values joined by “and” are separate entries in the source; they are usually repeats but may differ in a detail not shown here. Equal values may be shown once. Read-outs that look alike come from different tables or passages of the source.
Key:
[1] = molecular target: Cdc2-like kinase 4 (CLK4) (Homo sapiens, UniProt Q9HAZ1); assay: Off-target kinase screen CLK4; assay type: biochemical; details: 1 μM test compound
Source text: (§1) These kinases were chosen because they are the only known off-target hit kinases for eFT508. These assays were done using recombinant human kinases (CLK4, DRAK1 and PKG2) in a substrate phosphorylation assay. % activity remaining after MNK inhibitor treatment is indicated in Table 12.

[2] = Pharmacokinetic study, 4ET-03-009 at 10 mg/kg oral; assay type: in vivo, CD-1 male mice; details: for AUCinf/D / Cmax/D: dose normalized; for concentration at 24 hours: read-out: Clast
Description: Compound 4ET-03-009 was dissolved in a 10% dimethylacetamide (DMA)/[…] solvent. CD-1 male mice were orally dosed with 10 mg/kg of compound 4ET-03-009 in 20 mL/kg of liquid. Plasma was collected at indicated timepoints and plasma concentration of compound 4ET-03-009 was measured using liquid chromatography-mass spectrometry/mass spectrometry (LC-MS/MS). Results are presented in FIG. 1 and Tables 3, 4, and 5.

[3] = Liver microsome stability, rat; assay type: in vitro ADME; details: Rat liver microsomes (#)
[4] = molecular target: T1, death-associated protein kinase-related apoptosis-inducing protein kinase 1 (DRAK1) (Homo sapiens, UniProt Q9UEE5); assay: Off-target kinase screen DRAK1; assay type: biochemical; details: 1 μM test compound
T1 sequence (Q9UEE5 1-414): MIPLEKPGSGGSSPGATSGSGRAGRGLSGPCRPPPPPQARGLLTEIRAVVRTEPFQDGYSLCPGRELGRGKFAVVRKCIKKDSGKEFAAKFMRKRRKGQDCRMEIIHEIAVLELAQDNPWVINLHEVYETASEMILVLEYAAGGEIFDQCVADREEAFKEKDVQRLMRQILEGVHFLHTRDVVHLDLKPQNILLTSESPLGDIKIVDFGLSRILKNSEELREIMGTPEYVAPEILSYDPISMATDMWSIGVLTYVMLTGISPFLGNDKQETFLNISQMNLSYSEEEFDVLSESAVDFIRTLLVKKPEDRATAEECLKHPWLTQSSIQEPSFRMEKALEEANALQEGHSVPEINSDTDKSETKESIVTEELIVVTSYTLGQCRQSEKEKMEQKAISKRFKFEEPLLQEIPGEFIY
Source text: as §1

[5] = Liver microsome stability, human; assay type: in vitro ADME; details: liver microsomes
[6] = male, CD-1, mouse, plasma, po, 10 mg/kg, Mean (n = 3)
[7] = male, CD-1, mouse, plasma, po, 10 mg/kg, individual animals

Sequence of Cdc2-like kinase 4 (CLK4) (Q9HAZ1 whole entry): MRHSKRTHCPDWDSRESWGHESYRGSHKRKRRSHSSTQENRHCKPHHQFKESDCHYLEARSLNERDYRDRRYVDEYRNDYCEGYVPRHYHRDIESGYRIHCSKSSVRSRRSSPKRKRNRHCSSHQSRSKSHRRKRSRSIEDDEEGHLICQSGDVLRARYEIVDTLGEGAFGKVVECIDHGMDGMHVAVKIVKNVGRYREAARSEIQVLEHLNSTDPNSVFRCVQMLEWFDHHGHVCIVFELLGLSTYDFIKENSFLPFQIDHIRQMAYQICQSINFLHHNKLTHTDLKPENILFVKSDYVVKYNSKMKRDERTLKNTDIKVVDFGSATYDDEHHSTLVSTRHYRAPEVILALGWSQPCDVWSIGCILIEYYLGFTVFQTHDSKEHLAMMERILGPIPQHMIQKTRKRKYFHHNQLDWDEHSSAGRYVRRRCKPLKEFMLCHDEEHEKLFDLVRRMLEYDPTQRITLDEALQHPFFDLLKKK

With `Cc1cc(Nc2cc(NC(=O)C3CC3)ncn2)c(=O)n2c1C(=O)NC21CCOCC1` [Compound 4ET-03-009, N-(6-((8-Methyl-1,5-dioxo-1,2′,3′,5,5′,6′-hexahydro-2H-spiro[imidazo[1,5-a]pyridine-3,4′-pyran]-6-yl)amino)pyrimidin-4-yl)cyclopropanecarboxamide] the remaining activity at 1 µM [1] was 54%, the “abnormal clinical symptoms during the study” value [2] was “No abnormal clinical symptoms were observed” and the “Plasma Conc. (per mouse n = 3)” value ([2]; 0.083 hours) was 85.3 ng/mL and 106 ng/mL. The “Plasma Conc. (per mouse n = 3)” value ([2]; 0.25 hours) was 147 ng/mL and 161 ng/mL, the “Plasma Conc. (per mouse n = 3)” value ([2]; 0.5 hours) was 270 ng/mL and 205 ng/mL and the “Plasma Conc. (per mouse n = 3)” value ([2]; 1 hours) was 318 ng/mL and 233 ng/mL. For the same compound, the “Plasma Conc. (per mouse n = 3)” value ([2]; 2 hours) was 271 ng/mL and 216 ng/mL, the “Plasma Conc. (per mouse n = 3)” value ([2]; 4 hours) was 169 ng/mL and 124 ng/mL and the “Plasma Conc. (per mouse n = 3)” value ([2]; 6 hours) was 80.2 ng/mL and 70.6 ng/mL. For the same compound, the “Plasma Conc. (per mouse n = 3)” value ([2]; 8 hours) was 62.9 ng/mL and 53.9 ng/mL, the “Plasma Conc. (per mouse n = 3)” value ([2]; 24 hours) was 2.28 ng/mL and 1.84 ng/mL and the Tlast ([2]; Mean (n = 3)) was 24.0 h. The t1/2 ([2]; Mean (n = 3)) was 3.46 h, the AUCinf/D ([2]; Mean (n = 3)) was 162 kg·h/kL and the Cmax/D ([2]; Mean (n = 3)) was 29.4 kg/kL. The AUC0-8 hours ([2]; individual animals) was 1349 ng·h/mL and 1066 ng·h/mL, the AUCinf ([2]; individual animals) was 1882 ng·h/mL and 1520 ng·h/mL and the AUClast ([2]; individual animals) was 1870 ng·h/mL and 1511 ng·h/mL. For the same compound, the Clast ([2]; individual animals) was 2.28 ng/mL and 1.84 ng/mL, the Cmax ([2]; individual animals) was 318 ng/mL and 233 ng/mL and the MRTinf ([2]; individual animals) was 4.64 h and 4.74 h. The Tlast ([2]; individual animals) was 24.0 h, the t1/2 ([2]; individual animals) was 3.44 h and 3.37 h and the AUCinf/D ([2]; individual animals) was 147 kg·h/kL and 188 kg·h/kL and 152 kg·h/kL. The Cmax/D ([2]; individual animals) was 33.1 kg/kL and 31.8 kg/kL and 23.3 kg/kL, the Tmax ([2]; male, CD-1, mouse, plasma, individual animals) was 1 h and the concentration at 0.083 h ([2]; male, CD-1, mouse, plasma, oral, 10 mg/kg, 0.083 hours, mean n = 3, read-out: Plasma Conc. Mean) was 90.4 ng/mL. The concentration at 0.083 h ([2]; male, CD-1, mouse, plasma, oral, 10 mg/kg, 0.083 hours, read-out: Plasma Conc. (per mouse n = 3)) was 79.8 ng/mL, the concentration at 0.25 h ([2]; male, CD-1, mouse, plasma, oral, 10 mg/kg, 0.25 hours, mean n = 3, read-out: Plasma Conc. Mean) was 138 ng/mL and the concentration at 0.25 h ([2]; male, CD-1, mouse, plasma, oral, 10 mg/kg, 0.25 hours, read-out: Plasma Conc. (per mouse n = 3)) was 106 ng/mL. For the same compound, the concentration at 0.5 hours ([2]; male, CD-1, mouse, plasma, oral, 10 mg/kg, 0.5 hours, mean n = 3, read-out: Plasma Conc. Mean) was 226 ng/mL, the concentration at 0.5 h ([2]; male, CD-1, mouse, plasma, oral, 10 mg/kg, 0.5 hours, read-out: Plasma Conc. (per mouse n = 3)) was 202 ng/mL and the concentration at 1 h ([2]; male, CD-1, mouse, plasma, oral, 10 mg/kg, 1 hours, mean n = 3, read-out: Plasma Conc. Mean) was 294 ng/mL. For the same compound, the concentration at 1 h ([2]; male, CD-1, mouse, plasma, oral, 10 mg/kg, 1 hours, read-out: Plasma Conc. (per mouse n = 3)) was 331 ng/mL, the concentration at 2 h ([2]; male, CD-1, mouse, plasma, oral, 10 mg/kg, 2 hours, mean n = 3, read-out: Plasma Conc. Mean) was 255 ng/mL and the concentration at 2 h ([2]; male, CD-1, mouse, plasma, oral, 10 mg/kg, 2 hours, read-out: Plasma Conc. (per mouse n = 3)) was 227 ng/mL. For the same compound, the concentration at 4 h ([2]; male, CD-1, mouse, plasma, oral, 10 mg/kg, 4 hours, mean n = 3, read-out: Plasma Conc. Mean) was 132 ng/mL, the concentration at 4 h ([2]; male, CD-1, mouse, plasma, oral, 10 mg/kg, 4 hours, read-out: Plasma Conc. (per mouse n = 3)) was 104 ng/mL and the concentration at 6 h ([2]; male, CD-1, mouse, plasma, oral, 10 mg/kg, 6 hours, mean n = 3, read-out: Plasma Conc. Mean) was 66.7 ng/mL. The concentration at 6 h ([2]; male, CD-1, mouse, plasma, oral, 10 mg/kg, 6 hours, read-out: Plasma Conc. (per mouse n = 3)) was 49.3 ng/mL, the concentration at 8 h ([2]; male, CD-1, mouse, plasma, oral, 10 mg/kg, 8 hours, mean n = 3, read-out: Plasma Conc. Mean) was 52.5 ng/mL and the concentration at 8 h ([2]; male, CD-1, mouse, plasma, oral, 10 mg/kg, 8 hours, read-out: Plasma Conc. (per mouse n = 3)) was 40.6 ng/mL. The concentration at 24 h ([2]; male, CD-1, mouse, plasma, oral, 10 mg/kg, 24 hours, mean n = 3, read-out: Plasma Conc. Mean) was 1.92 ng/mL, the concentration at 24 h ([2]; male, CD-1, mouse, plasma, oral, 10 mg/kg, 24 hours, read-out: Plasma Conc. (per mouse n = 3)) was 1.64 ng/mL and the concentration at 24 hours ([2]; male, CD-1, mouse, plasma, oral, 10 mg/kg, Mean (n = 3)) was 1.92 ng/mL. It also gave a concentration at 24 hours ([2]; male, CD-1, mouse, plasma, oral, 10 mg/kg, individual animals) of 1.64 ng/mL, an AUC(0-inf) [2, 6] of 1620 ng·h/mL and an MRT inf [2, 6] of 4.5 h. The half-life [2, 6] was 3.5 h, the AUC(0-t) ([2]; male, CD-1, mouse, plasma, po, 10 mg/kg, Mean (n = 3), read-out: AUC0-8 hours) was 1180 ng·h/mL and the AUC(0-t) ([2]; male, CD-1, mouse, plasma, po, 10 mg/kg, Mean (n = 3), read-out: AUClast) was 1610 ng·h/mL. The Cmax ([2]; male, CD-1, mouse, plasma, po, 10 mg/kg, Mean (n = 3), read-out: Cmax) was 294 ng/mL, the AUC(0-inf) ([2]; male, CD-1, mouse, plasma, po, 10 mg/kg, for the study) was 1620 ng·h/mL and the Cmax ([2]; male, CD-1, mouse, plasma, po, 10 mg/kg, for the study, read-out: Cmax) was 716 nM. For the same compound, the AUC(0-inf) [2, 7] was 1460 ng·h/mL, the MRT inf [2, 7] was 4.12 h and the half-life [2, 7] was 3.58 h. The AUC(0-t) ([2]; male, CD-1, mouse, plasma, po, 10 mg/kg, individual animals, read-out: AUC0-8 hours) was 1120 ng·h/mL, the AUC(0-t) ([2]; male, CD-1, mouse, plasma, po, 10 mg/kg, individual animals, read-out: AUClast) was 1460 ng·h/mL and the Cmax ([2]; male, CD-1, mouse, plasma, po, 10 mg/kg, individual animals, read-out: Cmax) was 331 ng/mL. For the same compound, the microsomal CLint ([3]; read-out: CLint rodent) was 2.54 µL/min/mg, the half-life ([3]; read-out: Rodent liver microsomes t1/2) was 9.08 h and the remaining activity at 1 µM [4] was 16%. It also gave a microsomal CLint [5] of 2.16 µL/min/mg and a half-life ([5]; read-out: Human liver microsomes t1/2) of 10.7 h.
